Key:
[1] = overnight glucose infusion 5 mg/kg/min before elective abdominal surgery (Ljungqvist 1994); cited from earlier work
[2] = Blood glucose in NIDDM patients continuously infused for ten hours during the night (Example 2); assay type: in vivo, human; details: five NIDDM patients
Description: GLP-1 (7-36) amide was administered by a subcutaneous infusion at a dose rate of 1.2 pmol/kg/hr, for ten hours during the night, to five patients having non-insulin dependent diabetes (NIDDM). […] The rate of insulin infusion was adjusted every two hours to achieve optimum control, and to avoid hypoglycemia.

[3] = Blood glucose in NIDDM patients infused for three hours at each meal during the day (Example 3); assay type: in vivo, human; details: five NIDDM patients
Source text: During the day, GLP-1 (7-36) amide was infused into five NIDDM patients for three hours during breakfast, lunch, and dinner.

[4] = Hormone levels (RIA) in patients undergoing hipartroplasty with hyperinsulinemic, normoglycemic clamp before and during surgery; assay type: in vivo, human; parameters: Glucagon / Cortisol: unit not given here
Description: (§1) After one hour at steady state conditions, all patients underwent a standardized surgical treatment (hipartroplasty). […] The hyperinsulinemic, normoglycemic clamp was then maintained during surgery and continued for a further 3-4 hours after surgery. The data will be presented according to the following nomenclature:
(§2) The control group received no basal or preop clamp on the day of surgery.
Blood samples were collected from a heated hand vein repeatedly during the basal, preop, early op, late op and postop periods. Blood glucose was measured immediately upon collection using the glucose oxidase method (Yellow Springs Instruments, Yellow Springs, Ohio) [Hugget, A. S., et al., Lancet 2:368-70 (1957)]. […] Methods of hormone radioimmunoassay, Academic Press, New York and London (1979) pp. 643-56]; and glucagon (Euro-Diagnostica AB, Malm6, Sweden) [Faloona, G. R., et al., Glucagpn radioimmunoassay technique. 5 Vol. 1: Academic Press, New York (1974)].
(§3) All values are individual values, or mean+SEM (standard error of the mean). Statistical significance is accepted at p<0.05 using Wilcoxon's signed rank test and the Mann-Whitney U-test for paired and unpaired data respectively.

[5] = Indirect calorimetry: substrate oxidation rates and energy expenditure during and after surgery; assay type: in vivo, human
Description: Indirect calorimetry (Deltatrac® Dansjoo, Sweden) [Frayn, K. N. J. Appl. Physiol. 55(2):628-34 (1983); Takala, J., et al., Crit. Care Med. 17(10): 1041-47 (1989)] was performed for 30 minutes during the basal phase, twice during surgery (early op and late op), and during the last 30 minutes of the preop and postop clamps. Timed sampling of urine for analysis of urinary urea excretion was performed. After correction for changes in urea pool size [Tappy, L, et al., Diabetes 37:1212-16 (1988)], non-protein energy expenditure (EE), respiratory quotients (RQ) and substrate oxidation rates were calculated.

[6] = Glucose infusion rate (GIR) in hyperinsulinemic, normoglycemic clamp, preop vs postop, elective surgery patients; assay type: in vivo, human
Description: as §1, §2, §3

[7] = Hour 21:00, continuous infusion for ten hours during the night (GLP-1 (7-36) amide sc 1.2 pmol/kg/hr; insulin rate adjusted every two hours)
[8] = Hour 7:00, GLP-1 (7-36) amide infused three hours from start of each meal, insulin sc injection just before each meal
[9] = basal, 30 min before start of insulin infusion, insulin group n=7, mean ± SEM
[10] = early op, insulin 0.8 mU/kg/min iv, n=7
[11] = late op, insulin 0.8 mU/kg/min iv, n=7
[12] = postop clamp, insulin 0.8 mU/kg/min iv, n=7
[13] = preop clamp, insulin 0.8 mU/kg/min iv, n=7
[14] = insulin group vs control, p<0.05

## O=C[C@H](O)[C@@H](O)[C@H](O)[C@H](O)CO [glucose]
[1]
  Average loss of insulin sensitivity after the operation: 32%

## CC[C@H](C)[C@H](NC(=O)[C@H](Cc1ccccc1)NC(=O)[C@H](CCC(=O)O)NC(=O)[C@H](CCCCN)NC(=O)[C@H](C)NC(=O)[C@H](C)NC(=O)[C@H](CCC(N)=O)NC(=O)CNC(=O)[C@H](CCC(=O)O)NC(=O)[C@H](CC(C)C)NC(=O)[C@H](Cc1ccc(O)cc1)NC(=O)[C@H](CO)NC(=O)[C@H](CO)NC(=O)[C@@H](NC(=O)[C@H](CC(=O)O)NC(=O)[C@H](CO)NC(=O)[C@@H](NC(=O)[C@H](Cc1ccccc1)NC(=O)[C@@H](NC(=O)CNC(=O)[C@H](CCC(=O)O)NC(=O)[C@H](C)NC(=O)[C@@H](N)Cc1c[nH]cn1)[C@@H](C)O)[C@@H](C)O)C(C)C)C(=O)N[C@@H](C)C(=O)N[C@@H](Cc1c[nH]c2ccccc12)C(=O)N[C@@H](CC(C)C)C(=O)N[C@H](C(=O)N[C@@H](CCCCN)C(=O)NCC(=O)N[C@@H](CCCNC(=N)N)C(N)=O)C(C)C [GLP-1 (7-36) amide, GLP-1(7-36) amide]
[2]; Hour 0:00, night infusion
  Average Blood Glucose: 4.4 mM
[2]; Hour 1:00, night infusion
  Average Blood Glucose: 4.4 mM
[2]; Hour 2:00, night infusion
  Average Blood Glucose: 4.8 mM
[2]; Hour 3:00, night infusion
  Average Blood Glucose: 5.2 mM
[2]; Hour 4:00, night infusion
  Average Blood Glucose: 5.4 mM
[2]; Hour 5:00, night infusion
  Average Blood Glucose: 5.8 mM
[2]; Hour 6:00, night infusion
  Average Blood Glucose: 6.0 mM
[2]; Hour 7:00, night infusion
  Average Blood Glucose: 6.2 mM
[2]; [7]
  Average Blood Glucose: 7.5 mM
[2]; Hour 22:00, night infusion
  Average Blood Glucose: 5.4 mM
[2]; Hour 23:00, night infusion
  Average Blood Glucose: 4.1 mM
[2]; night infusion
  Metabolic control compared with insulin: better than that achieved by insulin
[2]; subcutaneous infusion 1.2 pmol/kg/hr, ten hours during the night
  Effect on blood glucose: nearly normalized blood glucose
[3]; [8]
  Average Blood Glucose: 5.4 mM
[3]; Hour 8:00, meal-time dosing
  Average Blood Glucose: 4.9 mM
[3]; Hour 9:00, meal-time dosing
  Average Blood Glucose: 5.7 mM
[3]; Hour 10:00, meal-time dosing
  Average Blood Glucose: 5.8 mM
[3]; Hour 11:00, meal-time dosing
  Average Blood Glucose: 8.1 mM
[3]; Hour 12:00, meal-time dosing
  Average Blood Glucose: 9.4 mM
[3]; Hour 13:00, meal-time dosing
  Average Blood Glucose: 7.2 mM
[3]; Hour 14:00, meal-time dosing
  Average Blood Glucose: 5.3 mM
[3]; Hour 15:00, meal-time dosing
  Average Blood Glucose: 7.2 mM
[3]; Hour 16:00, meal-time dosing
  Average Blood Glucose: 10.4 mM
[3]; Hour 17:00, meal-time dosing
  Average Blood Glucose: 9.2 mM
[3]; Hour 18:00, meal-time dosing
  Average Blood Glucose: 5.7 mM
[3]; Hour 19:00, meal-time dosing
  Average Blood Glucose: 6.6 mM
[3]; Hour 20:00, meal-time dosing
  Average Blood Glucose: 8.3 mM
[3]; Hour 21:00, meal-time dosing
  Average Blood Glucose: 9.3 mM
[3]
  Blood glucose level immediately after terminating each infusion: increased significantly
[3]; while GLP-1 was infused
  Post-prandial glucose excursions observed with insulin injection: eliminated

## insulin: insulin (Actrapid®, Novo, Copenhagen) in Example 1; insulin comparator in Examples 2 and 3
[2]; Hour 0:00, night infusion
  Average Blood Glucose: 5.6 mM
[2]; Hour 1:00, night infusion
  Average Blood Glucose: 5.1 mM
[2]; Hour 2:00, night infusion
  Average Blood Glucose: 5.2 mM
[2]; Hour 3:00, night infusion
  Average Blood Glucose: 5.4 mM
[2]; Hour 4:00, night infusion
  Average Blood Glucose: 5.7 mM
[2]; Hour 5:00, night infusion
  Average Blood Glucose: 6.0 mM
[2]; Hour 6:00, night infusion
  Average Blood Glucose: 6.1 mM
[2]; Hour 7:00, night infusion
  Average Blood Glucose: 6.1 mM
[2]; [7]
  Average Blood Glucose: 6.9 mM
[2]; Hour 22:00, night infusion
  Average Blood Glucose: 6.6 mM
[2]; Hour 23:00, night infusion
  Average Blood Glucose: 5.9 mM
[4]; [9]
  C-peptide: .68 ± .09
  Cortisol: 171 ± 41
  Glucagon: 58 ± 7
[4]; early op (10 to 40 min after initiation of surgery), insulin 0.8 mU/kg/min iv, n=7
  C-peptide: .42 ±.06
[4]; [10]
  Cortisol: 234 ± 46
  Glucagon: 40 ± 3
[4]; insulin group vs fasted control
  C-peptide levels during surgery compared to the control group: lower
[4]; insulin group, during surgery and the postop clamp, 0.8 mU/kg/min iv
  Serum insulin levels: around 60 μU/ml
[4]; insulin group, vs preop
  Serum cortisol levels after surgery: decreased
[4]; insulin group, vs preop, p<0.05
  Serum glucagon levels after surgery: decreased
[4]; late op (last 30 min of surgery), insulin 0.8 mU/kg/min iv, n=7
  C-peptide: .58 ± .12
[4]; [11]
  Cortisol: 212 ± 44
  Glucagon: 35 ± 4
[4]; [12]
  C-peptide: .52 ± .11
  Cortisol: 172 ± 83
  Glucagon: 33 ± 4
[4]; [13]
  Cortisol: 266 ± 35
  Glucagon: 52 ± 3
[4]; preop clamp, insulin 0.8 mU/kg/min iv, n=7, mean ± SEM
  C-peptide: .45 ± .05
[5]; insulin group
  Substrate oxidation rates at the postop clamp as compared to the preop clamp: no change
[5]; insulin group vs control
  Resting energy expenditure (EE) during or after surgery, between groups: did not differ
[5]; [14]
  Fat oxidation rates during surgery: significantly lower
  Glucose oxidation rates during surgery: significantly higher
[3]; [8]
  Average Blood Glucose: 6.1 mM
[3]; Hour 8:00, meal-time dosing
  Average Blood Glucose: 7.0 mM
[3]; Hour 9:00, meal-time dosing
  Average Blood Glucose: 9.1 mM
[3]; Hour 10:00, meal-time dosing
  Average Blood Glucose: 9.9 mM
[3]; Hour 11:00, meal-time dosing
  Average Blood Glucose: 8.2 mM
[3]; Hour 12:00, meal-time dosing
  Average Blood Glucose: 6.5 mM
[3]; Hour 13:00, meal-time dosing
  Average Blood Glucose: 9.1 mM
[3]; Hour 14:00, meal-time dosing
  Average Blood Glucose: 8.1 mM
[3]; Hour 15:00, meal-time dosing
  Average Blood Glucose: 7.0 mM
[3]; Hour 16:00, meal-time dosing
  Average Blood Glucose: 7.2 mM
[3]; Hour 17:00, meal-time dosing
  Average Blood Glucose: 6.5 mM
[3]; Hour 18:00, meal-time dosing
  Average Blood Glucose: 7.3 mM
[3]; Hour 19:00, meal-time dosing
  Average Blood Glucose: 6.1 mM
[3]; Hour 20:00, meal-time dosing
  Average Blood Glucose: 6.0 mM
[3]; Hour 21:00, meal-time dosing
  Average Blood Glucose: 6.4 mM
[6]; elevated insulin levels before and maintained throughout the operation
  Catabolic changes after surgery: completely abolished
[6]; insulin group n=7, p=0.2
  Change in average GIR in the postop clamp compared to the preop clamp: +16±20%
[6]; [14]
  Average GIR during the postop clamp compared to the control group: significantly higher

Reference: US6006753A, “Use of GLP-1 or analogs to abolish catabolic changes after surgery” (Eli Lilly and Company, priority 1997, dated 1999)
